Among the data in US9663508B2, “Biaryl acyl-sulfonamide compounds as sodium channel inhibitors” (AMGEN INC., priority 2013, dated 2017) are IC50 values, retold here.

Structures are written as SMILES. Like-named read-outs stand apart in the source and are kept apart here.

The target of the assay is human Nav1.7 (Homo sapiens (Human), UniProt Q15858). Kind of assay: Nav 1.7 in vitro PatchXpress (PX) assay. Format: cell-based.

One may read the IC50 as the concentration at which inhibition is half-maximal. A low value points to higher potency.

Sequence of human Nav1.7 (Q15858 whole entry): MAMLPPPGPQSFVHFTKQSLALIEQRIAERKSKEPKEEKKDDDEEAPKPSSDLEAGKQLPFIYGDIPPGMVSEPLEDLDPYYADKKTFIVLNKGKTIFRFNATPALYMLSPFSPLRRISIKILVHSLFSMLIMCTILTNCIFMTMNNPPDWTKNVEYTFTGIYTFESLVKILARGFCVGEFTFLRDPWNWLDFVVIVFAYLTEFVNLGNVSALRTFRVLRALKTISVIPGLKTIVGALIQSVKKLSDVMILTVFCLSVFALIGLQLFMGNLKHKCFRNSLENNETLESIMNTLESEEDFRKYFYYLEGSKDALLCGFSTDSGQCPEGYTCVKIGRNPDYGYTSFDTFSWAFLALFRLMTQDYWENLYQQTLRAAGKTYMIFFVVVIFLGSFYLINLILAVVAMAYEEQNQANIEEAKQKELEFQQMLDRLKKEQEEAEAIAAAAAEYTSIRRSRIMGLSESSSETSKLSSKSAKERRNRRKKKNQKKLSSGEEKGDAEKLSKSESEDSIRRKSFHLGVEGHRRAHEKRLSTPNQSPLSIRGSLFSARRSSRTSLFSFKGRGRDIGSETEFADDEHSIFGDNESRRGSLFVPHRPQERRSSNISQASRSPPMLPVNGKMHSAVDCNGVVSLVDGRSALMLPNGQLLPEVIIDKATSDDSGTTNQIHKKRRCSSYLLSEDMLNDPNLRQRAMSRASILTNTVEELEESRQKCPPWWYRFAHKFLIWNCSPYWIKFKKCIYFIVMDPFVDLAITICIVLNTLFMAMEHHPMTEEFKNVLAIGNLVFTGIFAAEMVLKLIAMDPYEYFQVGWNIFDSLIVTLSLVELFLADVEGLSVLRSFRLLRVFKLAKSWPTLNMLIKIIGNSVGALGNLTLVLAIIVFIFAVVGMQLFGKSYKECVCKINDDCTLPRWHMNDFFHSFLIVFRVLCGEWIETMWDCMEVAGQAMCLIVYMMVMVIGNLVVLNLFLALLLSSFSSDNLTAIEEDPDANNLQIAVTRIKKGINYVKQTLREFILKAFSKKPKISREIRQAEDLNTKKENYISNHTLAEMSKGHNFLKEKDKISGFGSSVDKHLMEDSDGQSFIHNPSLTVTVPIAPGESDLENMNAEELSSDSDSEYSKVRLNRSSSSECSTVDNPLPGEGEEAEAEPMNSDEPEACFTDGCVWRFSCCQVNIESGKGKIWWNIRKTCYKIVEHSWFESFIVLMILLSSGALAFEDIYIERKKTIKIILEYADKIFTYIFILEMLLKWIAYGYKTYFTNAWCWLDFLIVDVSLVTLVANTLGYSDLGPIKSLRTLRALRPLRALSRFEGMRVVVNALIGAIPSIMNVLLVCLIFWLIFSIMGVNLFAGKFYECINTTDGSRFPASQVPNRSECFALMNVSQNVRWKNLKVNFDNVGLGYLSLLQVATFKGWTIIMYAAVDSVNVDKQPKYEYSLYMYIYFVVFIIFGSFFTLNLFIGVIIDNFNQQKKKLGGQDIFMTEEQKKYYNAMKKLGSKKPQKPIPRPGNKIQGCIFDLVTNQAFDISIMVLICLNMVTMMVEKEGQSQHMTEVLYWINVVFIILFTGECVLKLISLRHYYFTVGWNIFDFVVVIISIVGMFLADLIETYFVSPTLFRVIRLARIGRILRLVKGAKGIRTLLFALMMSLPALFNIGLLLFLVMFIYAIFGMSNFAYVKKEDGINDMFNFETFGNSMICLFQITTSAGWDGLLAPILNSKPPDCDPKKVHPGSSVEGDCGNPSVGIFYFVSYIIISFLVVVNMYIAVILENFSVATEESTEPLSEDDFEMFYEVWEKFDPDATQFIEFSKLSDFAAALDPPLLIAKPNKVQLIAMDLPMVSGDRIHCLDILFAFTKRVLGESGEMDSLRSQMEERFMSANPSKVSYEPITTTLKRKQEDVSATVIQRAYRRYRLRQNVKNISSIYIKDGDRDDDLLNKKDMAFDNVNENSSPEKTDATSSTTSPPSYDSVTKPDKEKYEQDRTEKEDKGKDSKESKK
Experimental: HEK 293 cells stably transfected with human Nav1.7 were recorded in whole cell voltage clamp mode with the PatchXpress automated electrophysiology system (Molecular Devices, LLC, Sunnyvale, Calif.). Compound effects were measured on a partially inactivated state of the sodium channel. Cells were clamped to a holding potential yielding 20 to 50% inactivation. To elicit sodium current, channels were activated by pulsing to −10 mV for 20 msec. This voltage protocol was repeated at a rate of 0.1 Hz throughout the experiment. A single concentration of test compound was applied to cells for a duration of 3 minutes. Peak sodium current was measured at the end of the compound addition period to determine percent inhibition. Three to five cells were tested per concentration, and IC50 curves were fitted to percent inhibition as a function of concentration.

In the case of `Cc1cc(C(=O)NS(C)(=O)=O)c(F)cc1-c1cnc(O[C@@H]2CCCC(C)(C)C2)c(Cl)c1` [Example 687, 4-(5-chloro-6-(((1R)-3,3-dimethylcyclohexyl)oxy)-3-pyridinyl)-2-fluoro-5-methyl-N-(methylsulfonyl)benzamide, 4-(5-chloro-6-(((1S)-3,3-dimethylcyclohexyl)oxy)-3-pyridinyl)-2-fluoro-5-methyl-N-(methylsulfonyl)benzamide], the concentration for half-maximal inhibition (IC50) came to 75.9 nM.

Where the note is “in-vitro Nav 1.7 PX data”, `COc1cc(C(=O)NS(C)(=O)=O)c(F)cc1-c1cnc(NC2CCC(C)(C)CC2)c(Cl)c1` [Example 724, 4-(5-chloro-6-((4,4-dimethylcyclohexyl)amino)-3-pyridinyl)-2-fluoro-5-methoxy-N-(methylsulfonyl)benzamide] registered a 50% inhibitory concentration (IC50) of 106 nM. `Cc1cc(C(=O)NS(C)(=O)=O)c(F)cc1-c1cnc(Oc2cccc(F)c2F)c(Cl)c1` [Example 604, 4-(5-chloro-6-(2,3-difluorophenoxy)-3-pyridinyl)-2-fluoro-5-methyl-N-(methylsulfonyl)benzamide] yielded an IC50 of 109 nM. This counts as sub-micromolar. In turn, `COc1cc(C(=O)NS(C)(=O)=O)ccc1-c1cnc(Oc2c(Cl)cc(C)cc2Cl)c(C#N)c1` [Example 693, 4-(5-cyano-6-(2,6-dichloro-4-methylphenoxy)-3-pyridinyl)-3-methoxy-N-(methylsulfonyl)benzamide] came in with an IC50 of 22.1 nM. The molecule `Cc1cc(Cl)cc(Cl)c1Oc1ncc(-c2ccc(C(=O)NS(C)(=O)=O)cc2Br)cc1Cl` [Example 794, 3-bromo-4-(5-chloro-6-(2,4-dichloro-6-methylphenoxy)-3-pyridinyl)-N-(methylsulfonyl)benzamide] had an IC50 (in-vitro Nav 1.7 PX data) of 27.5 nM. In other words, the double-digit nanomolar range.

`COc1cc(C(=O)NS(C)(=O)=O)ccc1-c1cnc(Oc2cc(Cl)cc(Cl)c2)c(C(F)F)c1` [Example 382, 4-(6-(3,5-dichlorophenoxy)-5-(difluoromethyl)-3-pyridinyl)-3-methoxy-N-(methylsulfonyl)benzamide] gave an IC50 of 54 nM.

Where the note is “in-vitro Nav 1.7 PX data”, `Cc1cc(C(=O)NS(C)(=O)=O)c(F)cc1-c1ccc(OCC(F)(F)F)cc1` [Example 810, 5-fluoro-2-methyl-N-(methylsulfonyl)-4′-(2,2,2-trifluoroethoxy)-4-biphenylcarboxamide] returned an IC50 of 4020 nM. That is a single-digit micromolar value. For the molecule `CS(=O)(=O)NC(=O)c1cc(OC(F)F)c(-c2cnc(O[C@@H]3C[C@H]4CC[C@H]3C4)c(Cl)c2)cc1F` [Example 783, 4-(6-((1S,2R,4S)-bicyclo[2.2.1]hept-2-yloxy)-5-chloro-3-pyridinyl)-5-(difluoromethoxy)-2-fluoro-N-(methylsulfonyl)benzamide], 73.2 nM corresponded to half-maximal inhibition (in-vitro Nav 1.7 PX data) (IC50).

The molecule `COc1cc(C(=O)NS(C)(=O)=O)ccc1-c1cnc(Oc2ccnc(OC)c2Cl)c(Cl)c1` [Example 832, 4-(5-chloro-6-((3-chloro-2-methoxy-4-pyridinyl)oxy)-3-pyridinyl)-3-methoxy-N-(methylsulfonyl)benzamide] showed a concentration for half-maximal inhibition (IC50) (in-vitro Nav 1.7 PX data) of 92.3 nM.

As for `CS(=O)(=O)NC(=O)c1cc(OC(F)F)c(-c2cnc(Oc3c(F)ccc(F)c3F)c(Cl)c2)cc1F` [Example 785, 4-(5-chloro-6-(2,3,6-trifluorophenoxy)-3-pyridinyl)-5-(difluoromethoxy)-2-fluoro-N-(methylsulfonyl)benzamide], for the setting “in-vitro Nav 1.7 PX data”, the midpoint of inhibition, the IC50, lay at 73.3 nM. This IC50 and that of the molecule before are within 1.5-fold of each other. The molecule `Cc1c(Cl)cccc1Oc1ncc(-c2ccc(C(=O)NS(C)(=O)=O)cc2OC(F)F)cc1Cl` [Example 586, 4-(5-chloro-6-(3-chloro-2-methylphenoxy)-3-pyridinyl)-3-(difluoromethoxy)-N-(methylsulfonyl)benzamide] returned a concentration for half-maximal inhibition (IC50) of 34.6 nM. That is a double-digit nanomolar value. For `COc1ncc(Oc2ncc(-c3ccc(C(=O)NS(C)(=O)=O)cc3OC(F)F)cc2Cl)cc1Cl` [Example 436, 4-(5-chloro-6-((5-chloro-6-methoxy-3-pyridinyl)oxy)-3-pyridinyl)-3-(difluoromethoxy)-N-(methylsulfonyl)benzamide], the concentration for half-maximal inhibition (IC50) is 92.2 nM. `CCC(CC)Oc1ncc(-c2cc(F)c(C(=O)NS(C)(=O)=O)cc2Cl)cc1Cl` [Example 601, 5-chloro-4-(5-chloro-6-(1-ethylpropoxy)-3-pyridinyl)-2-fluoro-N-(methylsulfonyl)benzamide]: the IC50 is 75.4 nM.

As for `COc1cc(C(=O)NS(C)(=O)=O)c(F)cc1-c1cnc(Oc2ccc3ccccc3c2Cl)c(Cl)c1` [Example 717, 4-(5-chloro-6-((1-chloro-2-naphthalenyl)oxy)-3-pyridinyl)-2-fluoro-5-methoxy-N-(methylsulfonyl)benzamide], where the note is “in-vitro Nav 1.7 PX data”, half-maximal inhibition (IC50) was put at 99.3 nM. For the molecule `Cc1ccc(Oc2ncc(-c3cc(F)c(C(=O)NS(C)(=O)=O)cc3F)cc2Cl)c(F)c1F` [Example 569, 4-(5-chloro-6-(2,3-difluoro-4-methylphenoxy)-3-pyridinyl)-2,5-difluoro-N-(methylsulfonyl)benzamide], the IC50 was found to be 60 nM. In the case of `Cc1ccc(Oc2ncc(-c3ccc(C(=O)NS(C)(=O)=O)cc3OC(F)F)cc2Cl)cc1Cl` [Example 449, 4-(5-chloro-6-(3-chloro-4-methylphenoxy)-3-pyridinyl)-3-(difluoromethoxy)-N-(methylsulfonyl)benzamide], the IC50 was 79.2 nM. `Cc1cc(C(=O)NS(C)(=O)=O)c(F)cc1-c1cnc(Oc2cc(Cl)cc(Cl)c2)c(C(F)F)c1` [Example 823, 4-(6-(3,5-Dichlorophenoxy)-5-(Difluoromethyl)Pyridin-3-yl)-2-Fluoro-5-Methyl-N-(Methyl Sulfonyl)Benzamide] had an IC50 (in-vitro Nav 1.7 PX data) of 179 nM. Regarding `Cc1cc(C(=O)NS(=O)(=O)C2CC2)c(F)cc1-c1cnc(OC2CCC2)c(Cl)c1` [Example 797, 4-(5-chloro-6-(cyclobutyloxy)-3-pyridinyl)-N-(cyclopropylsulfonyl)-2-fluoro-5-methylbenzamide], where the note is “in-vitro Nav 1.7 PX data”, the IC50 is 98.8 nM. The same measure, in the same setting: for `Cc1cc(C(=O)NS(C)(=O)=O)c(F)cc1-c1ccc2c(c1)OC(F)(F)O2` [Example 809, 4-(2,2-difluoro-1,3-benzodioxol-5-yl)-2-fluoro-5-methyl-N-(methylsulfonyl)benzamide] the value was 647 nM. As for `CCc1ccc(C)cc1Oc1ncc(-c2cc(F)c(C(=O)NS(C)(=O)=O)cc2C)cc1Cl` [Example 680, 4-(5-chloro-6-(2-ethyl-5-methylphenoxy)-3-pyridinyl)-2-fluoro-5-methyl-N-(methylsulfonyl)benzamide], 66.3 nM corresponded to half-maximal inhibition (IC50). That is a double-digit nanomolar value.

In turn, `COc1cc(C(=O)NS(C)(=O)=O)c(F)cc1-c1cnc(Oc2c(F)ccc(F)c2F)c(Cl)c1` [Example 766, 4-(5-chloro-6-(2,3,6-trifluorophenoxy)-3-pyridinyl)-2-fluoro-5-methoxy-N-(methylsulfonyl)benzamide] yielded a half-maximal inhibitory concentration (IC50) (in-vitro Nav 1.7 PX data) of 96.3 nM. Molecule `COc1cc(C(=O)NS(C)(=O)=O)ccc1-c1cnc(Oc2cccc(Cl)c2Cl)c(Cl)c1` [Example 583, 4-(5-Chloro-6-(2,3-Dichlorophenoxy)Pyridin-3-yl)-3-Methoxy-N-(Methylsulfonyl)Benzamide] returned a concentration for half-maximal inhibition (IC50) of 30.5 nM. With `C[C@@H](Oc1ncc(-c2ccc(C(=O)NS(C)(=O)=O)cc2OC(F)F)cc1Cl)c1ccccc1` [Example 455, 4-(5-chloro-6-((1R)-1-phenylethoxy)-3-pyridinyl)-3-(difluoromethoxy)-N-(methylsulfonyl)benzamide], the IC50 was determined as 58 nM.

For the molecule `COc1cc(C(=O)NS(C)(=O)=O)c(F)cc1-c1cnc(Oc2cc(F)ccc2F)c(Cl)c1` [Example 706, 4-(5-chloro-6-(2,5-difluorophenoxy)-3-pyridinyl)-2-fluoro-5-methoxy-N-(methylsulfonyl)benzamide], the 50% inhibitory concentration (IC50) (in-vitro Nav 1.7 PX data) worked out at 130 nM. `CS(=O)(=O)NC(=O)c1ccc(-c2cnc(Oc3ccc4ccccc4c3)c(Cl)c2)c(OC2COC2)c1` [Example 424, 4-(5-chloro-6-(2-naphthalenyloxy)-3-pyridinyl)-N-(methylsulfonyl)-3-(3-oxetanyloxy)benzamide] displayed a concentration for half-maximal inhibition (IC50) of 99.4 nM.

Take `CS(=O)(=O)NC(=O)c1cc(OC(F)F)c(-c2cnc(OCc3ccc(Cl)cc3)c(Cl)c2)cc1F` [Example 786, 4-(5-chloro-6-((4-chlorobenzyl)oxy)-3-pyridinyl)-5-(difluoromethoxy)-2-fluoro-N-(methylsulfonyl)benzamide]: the concentration for half-maximal inhibition (IC50) (in-vitro Nav 1.7 PX data) was found to be 55.6 nM. In other words, the double-digit nanomolar range. With `Cc1cc(C(=O)NS(C)(=O)=O)c(F)cc1-c1cnc(Oc2ccc(F)c(Cl)c2)c(Cl)c1` [Example 626, 4-(5-chloro-6-(3-chloro-4-fluorophenoxy)-3-pyridinyl)-2-fluoro-5-methyl-N-(methylsulfonyl)benzamide], the IC50 amounted to 108 nM. `COc1cc(C(=O)NS(C)(=O)=O)ccc1-c1cnc(Oc2ccc(F)cc2C)c(Cl)c1` [Example 361, 4-(5-chloro-6-(4-fluoro-2-methylphenoxy)-3-pyridinyl)-3-methoxy-N-(methylsulfonyl)benzamide] registered an IC50 of 96.6 nM. `COc1cc(C(=O)NS(C)(=O)=O)ccc1-c1cnc(Oc2cc(Cl)ccc2Cl)c(Cl)c1` [Example 582, 4-(5-chloro-6-(2,5-dichlorophenoxy)-3-pyridinyl)-3-methoxy-N-(methylsulfonyl)benzamide]: it took 61.4 nM to reach half-maximal inhibition (IC50).

Turning to `COc1cc(C(=O)NS(C)(=O)=O)ccc1-c1cnc(Oc2c(C)cc(Cl)cc2Cl)c(Cl)c1` [Example 578, 4-(5-Chloro-6-(2,4-Dichloro-6-Methylphenoxy)-Pyridin-3-yl)-3-Methoxy-N-(Methylsulfonyl)Benzamide], the half-maximal inhibitory concentration (IC50) amounted to 29.6 nM. This IC50 is about 2.1-fold lower than that of the molecule before. The same measure, in the same setting: for `COc1cc(C(=O)NS(C)(=O)=O)ccc1-c1cnc(Oc2ccc(Cl)c(Cl)c2)c(C#N)c1` [Example 692, 4-(5-cyano-6-(3,4-dichlorophenoxy)-3-pyridinyl)-3-methoxy-N-(methylsulfonyl)benzamide] the value was 60.3 nM.

For the molecule `CS(=O)(=O)NC(=O)c1ccc(-c2cnc(OCCc3ccccc3)c(Cl)c2)c(OC(F)F)c1` [Example 467, 4-(5-chloro-6-(2-phenylethoxy)-3-pyridinyl)-3-(difluoromethoxy)-N-(methylsulfonyl)benzamide], the IC50 is 78.8 nM. On the same count and under the same terms, the same measure for `Cc1ccc(Oc2ncc(-c3ccc(C(=O)NS(C)(=O)=O)cc3OC3COC3)cc2Cl)cc1Cl` [Example 425, 4-(5-chloro-6-(3-chloro-4-methylphenoxy)-3-pyridinyl)-N-(methylsulfonyl)-3-(3-oxetanyloxy)benzamide]: 32.2 nM.
